This is an account of results in patent US10822535B2, “Modified acid compositions as alternatives to conventional acids in the oil and gas industry” (Fluid Energy Group Ltd., priority 2017, dated 2020).

SMILES strings stand for the structures. Values after ≈ are worked out from the molar mass of the structure shown. Like-named read-outs stand apart in the source and are kept apart here.

A short description of series [1]: Aerobic degradability in seawater (OECD 306). The protocol: This study was commissioned to determine the aerobic degradability of the composition of monoethanolamine in seawater. […] The ThODNO3 value was determined from the chemical formula of the compound tested.
The OECD 306 guideline states the test material can be considered to be inhibitory to bacteria (at the concentration used) if the BOD of the mixture of reference and test materials is less than the sum of the BOD of the separate solutions of the two substances.

The nature of series [2]: Acute lethal toxicity to marine copepods (ISO 14669). To be noted: Acartia tonsa (marine copepod), in vivo, other: aquatic phase (waterborne exposure), Water Accommodated Fraction, nominal concentrations. The procedure: A series of test were carried out to assess the environmental impact of monoethanoamine. A stock solution of 98-99% pure monoethanolamine was sent to be tested. The solution was diluted where necessary.
Determination of Acute Lethal Toxicity to Marine Copepods (Copepoda; Crustacea) (ISO 14669 (1999) Water Quality)
This study was commissioned to determine the aquatic phase toxicity of monoethanolamine to the marine copepod Acartia tonsa. The A. tonsa toxicity LC50 test was conducted in accordance with the study plan except for the following deviation and interferences but met all other relevant validity criteria. In the definitive test the temperature of the dilution water was below acceptable limits by a maximum of 0.7° C., the pH was below acceptable limits by a maximum of 0.01 units. These deviations were not expected to have an impact on the test as there was no control mortalities.

The subject of another series is Corophium volutator. As to the kind of experiment: Sediment bioassay using an amphipod (OSPARCOM 2006 Part A). Type of series: in vivo. To be noted: sediment phase, via dried sediment, nominal concentrations. The protocol:
OSPARCOM Guidelines (2006) Part A. A Sediment Bioassay Using an Amphipod Corophium sp
This study was commissioned to determine the sediment phase toxicity of the composition of monoethanolamine to the intertidal amphipod Corophium volutator. […] The result is based on nominal concentrations and was calculated by Linear Interpolation within the CETIS suite of statistical analysis.

Another series has as its system Skeletonema sp. As to the kind of experiment: Marine algal growth inhibition test (ISO 10253). Type of series: cell-based. To be noted: 72 h, WAFs, nominal concentrations, read-out: 72 h EC(r)50. The source says: ISO 10253 (2016) Water Quality—Marine Algal Growth Inhibition Test with Skeletonema Sp. This study was commissioned to determine the aquatic phase toxicity of the composition of monoethanolamine to the marine unicellular algae Skeletonema sp. […] It is the results from this test that has been reported.

Another series has as its system Cyprinodon variegatus. As to the kind of experiment: Marine fish 96 h limit test (OSPAR). To be noted: 96 h exposure at 199.7 mg/l (Water Accommodated Fraction). Type of series: in vivo. The protocol: This study was commissioned to determine the aquatic (96 h limit test) toxicity of the composition of monoethanolamine to the marine fish Cyprinodon variegatus.
There were no interferences in this test. Test conditions of exposure were within formal and informal limits of acceptability except for the exception noted below. There were ten fish used in both the test and control tanks, with no control mortality observed.
The test concentration was derived from the test material EC/LC50 value between the most sensitive acute toxicity test species Skeletonema sp. and A. tonsa.

One may read the LC50 as the concentration lethal to half of the exposed cells or organisms. A lower LC50 goes with greater toxicity.

For the compound `O=C([O-])c1ccccc1.[Na+]` [sodium benzoate, reference compound], in series [1] (first 14 days, seawater), the “degradation of reference material” value was “more than 60%”.

Turning to `NCCO` [monoethanolamine], the LC50 at 48 h was found to be 434 µg/mL (≈ 7.1 mM) in series [2] (48 h LC50, definitive test, seawater) and 550 µg/mL (≈ 9 mM) in series [2] (48 h LC50, range-finding test). Further, in the series on Corophium volutator, the “10 day LC50” value is given as 6,660 mg/kg. In addition, the EC50 turned out to be 200 µg/mL (≈ 3.27 mM) in the series on Skeletonema sp. (definitive test) and 509 µg/mL (≈ 8.33 mM) in the series on Skeletonema sp. (range-finding test). Moreover, the biodegradation in series [1] is given as 71%. In addition, the “percentage inhibition of bacteria” value in series [1] (in 28 days) is given as 12%. Moreover, the mortality result with Cyprinodon variegatus is “no mortalities”.
